Drawing on PMC7827406, “Structure–Activity Relationship (SAR) Study of Spautin-1 to Entail the Discovery of Novel NEK4 Inhibitors” (International Journal of Molecular Sciences, 2021), this text covers remaining activity for 4 molecules.

Read-outs that look alike come from different tables or passages of the source.

Holding throughout (assay): biochemical
What all share (design): Eurofins KinaseProfiler full panel at Km ATP, residual kinase activity (%) relative to DMSO

One assay addresses T1, Tec(h) activated (Homo sapiens, UniProt P42680).
T1 sequence (P42680 1-631): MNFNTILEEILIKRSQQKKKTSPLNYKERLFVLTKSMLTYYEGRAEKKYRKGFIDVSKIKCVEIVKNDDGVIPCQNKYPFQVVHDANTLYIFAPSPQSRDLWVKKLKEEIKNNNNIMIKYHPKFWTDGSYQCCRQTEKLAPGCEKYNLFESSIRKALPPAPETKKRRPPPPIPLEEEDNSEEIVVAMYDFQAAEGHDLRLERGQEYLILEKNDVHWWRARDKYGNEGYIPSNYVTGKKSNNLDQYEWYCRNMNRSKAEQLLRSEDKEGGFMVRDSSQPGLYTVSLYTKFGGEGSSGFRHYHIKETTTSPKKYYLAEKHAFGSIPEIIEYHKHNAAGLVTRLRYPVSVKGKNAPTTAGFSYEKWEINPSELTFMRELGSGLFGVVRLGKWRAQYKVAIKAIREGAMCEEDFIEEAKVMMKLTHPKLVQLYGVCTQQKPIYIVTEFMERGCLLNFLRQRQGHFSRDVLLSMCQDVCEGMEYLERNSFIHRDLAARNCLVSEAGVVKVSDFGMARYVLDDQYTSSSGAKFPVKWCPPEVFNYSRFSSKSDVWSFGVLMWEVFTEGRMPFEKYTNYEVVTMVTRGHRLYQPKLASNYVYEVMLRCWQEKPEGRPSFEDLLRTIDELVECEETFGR
The gist of the method: (§1)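 Compounds screened at 10 µM in radiometric kinase activity assays at Km ATP, reported as remaining kinase activity (%). A KINOMEscan competition-binding screen at 10 µM measured DNA-tagged kinase retained on immobilized active-site ligand by qPCR.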

Another assay concerns the target ErbB4(h) (Homo sapiens, UniProt Q15303). The procedure, abridged:
as §1

The target in the next assay is T2, SAPK3(h) (Homo sapiens, UniProt P53778).
T2 construct: gene MAPK12
T2 sequence (P53778 1-367): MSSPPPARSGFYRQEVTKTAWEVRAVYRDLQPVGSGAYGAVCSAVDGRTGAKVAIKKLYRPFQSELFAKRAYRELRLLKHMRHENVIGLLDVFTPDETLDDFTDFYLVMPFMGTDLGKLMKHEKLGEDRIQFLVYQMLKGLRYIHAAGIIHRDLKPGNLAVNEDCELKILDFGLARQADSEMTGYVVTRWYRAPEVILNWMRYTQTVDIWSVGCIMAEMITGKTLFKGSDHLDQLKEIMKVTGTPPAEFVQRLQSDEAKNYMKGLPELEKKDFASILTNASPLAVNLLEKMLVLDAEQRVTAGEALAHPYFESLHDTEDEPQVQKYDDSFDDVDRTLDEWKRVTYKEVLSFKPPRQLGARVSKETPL
The procedure, abridged: as §1

The next assay deals with EphA2(h) (Homo sapiens, UniProt P29317). The procedure, abridged: as §1
In a further assay the target is T3, OSR1(h) (Homo sapiens, UniProt O95747).
T3 construct: gene OXSR1
The gist of the method: as §1

The target in another assay is T4, IKKβ(h) (Homo sapiens, UniProt O14920).
T4 construct: gene IKBKB
T4 sequence (O14920 1-756): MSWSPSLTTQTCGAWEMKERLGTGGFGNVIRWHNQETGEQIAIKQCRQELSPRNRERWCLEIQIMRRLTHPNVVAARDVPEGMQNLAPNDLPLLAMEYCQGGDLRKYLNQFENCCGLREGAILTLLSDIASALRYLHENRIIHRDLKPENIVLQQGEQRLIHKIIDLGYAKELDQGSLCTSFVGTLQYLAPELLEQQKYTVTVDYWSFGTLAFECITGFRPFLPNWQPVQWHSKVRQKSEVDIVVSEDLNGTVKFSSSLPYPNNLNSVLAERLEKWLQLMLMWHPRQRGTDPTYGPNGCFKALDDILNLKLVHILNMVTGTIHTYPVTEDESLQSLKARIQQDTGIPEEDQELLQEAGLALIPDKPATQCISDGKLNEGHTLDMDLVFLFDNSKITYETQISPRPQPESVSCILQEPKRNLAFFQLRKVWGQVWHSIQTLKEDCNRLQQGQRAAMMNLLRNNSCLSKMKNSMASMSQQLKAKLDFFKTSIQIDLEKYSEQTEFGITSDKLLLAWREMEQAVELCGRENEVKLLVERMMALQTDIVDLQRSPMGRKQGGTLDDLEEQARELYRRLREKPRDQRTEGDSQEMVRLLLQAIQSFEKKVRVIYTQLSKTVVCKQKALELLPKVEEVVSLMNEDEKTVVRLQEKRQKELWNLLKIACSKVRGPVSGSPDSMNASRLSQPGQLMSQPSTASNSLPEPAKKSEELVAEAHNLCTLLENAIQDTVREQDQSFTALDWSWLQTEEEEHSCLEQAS
The gist of the method: as §1

For another assay, the target named is T5, Snk(h) (Homo sapiens, UniProt Q9NYY3).
T5 construct: gene PLK2
The procedure, abridged:
as §1

[1] abbreviates: read-out: Residual activity (%) Spautin-1 5aa.
The mark [2] stands for this setting: read-out: Residual activity (%) 5as.
The mark [3] stands for this setting: read-out: Residual activity (%) 5at.
Setting [4] is: read-out: Residual activity (%) 5ay.

T3 sequence (O95747 whole entry): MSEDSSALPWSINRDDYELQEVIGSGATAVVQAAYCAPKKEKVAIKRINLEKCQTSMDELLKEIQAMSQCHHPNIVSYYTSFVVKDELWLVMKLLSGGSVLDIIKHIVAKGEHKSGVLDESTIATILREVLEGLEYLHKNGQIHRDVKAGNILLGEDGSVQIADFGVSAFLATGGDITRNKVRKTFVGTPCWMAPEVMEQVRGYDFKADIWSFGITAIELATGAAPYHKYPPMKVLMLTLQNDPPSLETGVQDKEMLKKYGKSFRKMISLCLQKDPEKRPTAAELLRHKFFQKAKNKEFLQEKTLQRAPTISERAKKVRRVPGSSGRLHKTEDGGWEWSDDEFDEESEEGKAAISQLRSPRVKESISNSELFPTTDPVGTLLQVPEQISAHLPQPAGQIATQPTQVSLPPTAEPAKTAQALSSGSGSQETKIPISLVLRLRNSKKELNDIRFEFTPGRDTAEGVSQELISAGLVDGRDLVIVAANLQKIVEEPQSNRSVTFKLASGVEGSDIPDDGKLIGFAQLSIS
T5 sequence (Q9NYY3 whole entry): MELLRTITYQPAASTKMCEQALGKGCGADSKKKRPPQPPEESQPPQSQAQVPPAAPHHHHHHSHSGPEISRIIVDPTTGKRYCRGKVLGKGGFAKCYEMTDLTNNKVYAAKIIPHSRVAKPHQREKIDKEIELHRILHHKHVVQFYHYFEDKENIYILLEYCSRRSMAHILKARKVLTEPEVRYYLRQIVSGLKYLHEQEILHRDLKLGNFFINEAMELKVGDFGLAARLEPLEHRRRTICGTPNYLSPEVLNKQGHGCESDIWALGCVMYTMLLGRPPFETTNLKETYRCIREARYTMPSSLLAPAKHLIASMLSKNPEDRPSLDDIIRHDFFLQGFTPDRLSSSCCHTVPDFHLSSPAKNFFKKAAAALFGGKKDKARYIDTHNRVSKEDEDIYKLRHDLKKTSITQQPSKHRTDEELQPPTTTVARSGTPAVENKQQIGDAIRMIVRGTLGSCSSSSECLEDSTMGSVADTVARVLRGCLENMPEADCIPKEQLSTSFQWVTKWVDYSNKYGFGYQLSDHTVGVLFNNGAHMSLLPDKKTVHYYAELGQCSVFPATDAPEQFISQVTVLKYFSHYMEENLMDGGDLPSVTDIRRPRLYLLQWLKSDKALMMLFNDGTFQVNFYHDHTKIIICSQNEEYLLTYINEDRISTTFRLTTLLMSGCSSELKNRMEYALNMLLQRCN
ErbB4(h), sequence (Q15303 whole entry): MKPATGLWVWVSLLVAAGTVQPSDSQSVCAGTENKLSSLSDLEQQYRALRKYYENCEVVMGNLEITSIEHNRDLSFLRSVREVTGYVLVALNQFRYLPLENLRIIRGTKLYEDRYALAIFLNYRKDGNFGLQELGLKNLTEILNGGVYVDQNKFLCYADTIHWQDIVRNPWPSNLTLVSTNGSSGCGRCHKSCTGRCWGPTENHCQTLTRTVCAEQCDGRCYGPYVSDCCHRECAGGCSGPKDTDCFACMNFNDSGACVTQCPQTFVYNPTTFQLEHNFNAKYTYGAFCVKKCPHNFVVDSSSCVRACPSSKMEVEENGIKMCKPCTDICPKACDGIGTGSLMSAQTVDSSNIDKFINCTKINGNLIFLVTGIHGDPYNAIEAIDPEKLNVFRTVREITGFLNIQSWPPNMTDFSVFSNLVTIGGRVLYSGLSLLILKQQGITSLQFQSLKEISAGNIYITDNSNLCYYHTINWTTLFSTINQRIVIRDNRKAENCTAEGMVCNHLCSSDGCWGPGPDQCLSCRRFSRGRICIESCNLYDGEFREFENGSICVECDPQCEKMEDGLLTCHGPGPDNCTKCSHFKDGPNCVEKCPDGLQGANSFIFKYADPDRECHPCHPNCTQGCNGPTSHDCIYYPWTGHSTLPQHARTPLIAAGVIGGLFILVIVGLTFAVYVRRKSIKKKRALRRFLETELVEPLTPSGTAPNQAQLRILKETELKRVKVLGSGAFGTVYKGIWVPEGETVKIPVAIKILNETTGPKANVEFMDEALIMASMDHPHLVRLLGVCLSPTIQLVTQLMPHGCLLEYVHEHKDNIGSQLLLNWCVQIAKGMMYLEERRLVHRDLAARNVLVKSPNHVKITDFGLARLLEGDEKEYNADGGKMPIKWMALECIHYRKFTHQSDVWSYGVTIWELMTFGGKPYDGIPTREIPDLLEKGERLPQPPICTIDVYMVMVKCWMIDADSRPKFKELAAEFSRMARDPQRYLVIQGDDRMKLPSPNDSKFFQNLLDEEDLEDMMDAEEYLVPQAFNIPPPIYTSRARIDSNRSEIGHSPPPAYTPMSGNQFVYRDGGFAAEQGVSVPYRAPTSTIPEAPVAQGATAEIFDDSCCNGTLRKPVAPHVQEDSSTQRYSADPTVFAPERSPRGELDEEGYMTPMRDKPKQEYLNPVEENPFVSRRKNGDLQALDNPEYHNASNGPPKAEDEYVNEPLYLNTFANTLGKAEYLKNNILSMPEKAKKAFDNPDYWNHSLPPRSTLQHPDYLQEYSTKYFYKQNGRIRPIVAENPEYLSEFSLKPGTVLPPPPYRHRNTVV
EphA2(h), sequence (P29317 whole entry): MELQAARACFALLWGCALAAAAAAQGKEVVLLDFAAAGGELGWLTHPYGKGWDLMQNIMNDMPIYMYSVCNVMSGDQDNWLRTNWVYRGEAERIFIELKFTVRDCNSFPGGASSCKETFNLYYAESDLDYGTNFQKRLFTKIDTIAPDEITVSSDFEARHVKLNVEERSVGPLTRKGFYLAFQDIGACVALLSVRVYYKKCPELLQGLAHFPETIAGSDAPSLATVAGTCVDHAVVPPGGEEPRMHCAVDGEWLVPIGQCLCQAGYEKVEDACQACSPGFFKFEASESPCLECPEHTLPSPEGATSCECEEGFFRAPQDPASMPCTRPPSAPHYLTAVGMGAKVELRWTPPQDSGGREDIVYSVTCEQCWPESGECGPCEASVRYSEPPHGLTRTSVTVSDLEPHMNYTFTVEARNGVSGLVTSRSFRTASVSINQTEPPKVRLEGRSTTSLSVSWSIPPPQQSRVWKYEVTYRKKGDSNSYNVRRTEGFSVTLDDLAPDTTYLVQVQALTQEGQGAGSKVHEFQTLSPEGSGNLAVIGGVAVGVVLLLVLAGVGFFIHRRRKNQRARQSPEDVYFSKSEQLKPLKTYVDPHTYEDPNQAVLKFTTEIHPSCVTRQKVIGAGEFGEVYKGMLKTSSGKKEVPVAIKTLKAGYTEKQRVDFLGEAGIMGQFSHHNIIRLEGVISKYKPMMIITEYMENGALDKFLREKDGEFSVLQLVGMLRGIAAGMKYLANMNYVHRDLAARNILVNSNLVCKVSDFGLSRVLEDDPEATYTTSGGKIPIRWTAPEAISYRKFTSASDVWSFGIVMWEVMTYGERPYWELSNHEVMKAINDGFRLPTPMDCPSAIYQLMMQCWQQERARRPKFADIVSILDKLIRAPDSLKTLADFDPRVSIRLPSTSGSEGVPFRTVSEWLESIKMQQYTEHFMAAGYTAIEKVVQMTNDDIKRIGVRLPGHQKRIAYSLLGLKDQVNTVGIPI

`Fc1ccc(CNc2ncnc3ccc(F)cc23)cc1` [5aa, 6-Fluoro-N-(4-fluorobenzyl)-4-Quinazolinamine]: the remaining activity at 10 µM at Tec(h) activated (setting [1]) was determined as 78%; on ErbB4(h) (setting [1]) it was 90%; at SAPK3(h) (setting [1]), 106%; at EphA2(h) (setting [1]), 73%; on OSR1(h) (setting [1]), 100%; at IKKβ(h) (setting [1]) it was 106%. At Snk(h) (setting [1]), the remaining activity at 10 µM was 98%.

Take `Fc1ccc(CCNc2ncnc3ccc(F)cc23)cc1` [5as, 6-Fluoro-N-[2-(4-Fluorophenyl)Ethyl]-4-Quinazolinamine]: the remaining activity at 10 µM amounted to 100% on Tec(h) activated (setting [2]); 84% at ErbB4(h) (setting [2]); 114% at SAPK3(h) (setting [2]); 90% at EphA2(h) (setting [2]); 95% at OSR1(h) (setting [2]); 110% on IKKβ(h) (setting [2]). In addition, the remaining activity at 10 µM at Snk(h) (setting [2]) was 89%.

As to `Fc1ccc2ncnc(NCCc3ccc(Cl)cc3)c2c1` [5at, N-[2-(4-Chlorophenyl)Ethyl]-6-Fluoro-4-Quinazolinamine], the remaining activity at 10 µM was found to be 86% on Tec(h) activated (setting [3]); 79% on ErbB4(h) (setting [3]); 87% on SAPK3(h) (setting [3]); 99% on EphA2(h) (setting [3]); 108% on OSR1(h) (setting [3]); 98% on IKKβ(h) (setting [3]). Moreover, the remaining activity at 10 µM on Snk(h) (setting [3]) came to 100%.

In the case of `COc1ccc2ncnc(Nc3cccc(F)c3)c2c1` [5ay, N-(3-Fluorophenyl)-6-Methoxy-4-Quinazolinamine], the remaining activity at 10 µM at Tec(h) activated (setting [4]) amounted to 76%; on ErbB4(h) (setting [4]), 74%; at SAPK3(h) (setting [4]), 101%; on EphA2(h) (setting [4]), 75%; at OSR1(h) (setting [4]) it was 107%; on IKKβ(h) (setting [4]), 107%. Besides, the remaining activity at 10 µM at Snk(h) (setting [4]) turned out to be 80%.
